Data reported in ChEMBL document CHEMBL1201862, “PubChem BioAssay data set” (2004).
Activity calls are given as the source filed them.

Tests used:
[1] = target: T1, Heat shock 70 kDa protein 1A (Homo sapiens, UniProt P0DMV8); experiment: Hsp70 inhibitors, biochemical, TR-FRET (AID 786)
[2] = target: T2, RNA-binding protein pos-1 (Caenorhabditis elegans, UniProt G5EF15); experiment: inhibitors of POS-1/mex-3 RNA binding, dose response, biochemical, fluorescence polarization (AID 1964);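 further: purified POS-1 fused to maltose binding protein made in E. coli; potency of compounds blocking POS-1 binding to fluorescent RNA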
T2 sequence (G5EF15 whole entry): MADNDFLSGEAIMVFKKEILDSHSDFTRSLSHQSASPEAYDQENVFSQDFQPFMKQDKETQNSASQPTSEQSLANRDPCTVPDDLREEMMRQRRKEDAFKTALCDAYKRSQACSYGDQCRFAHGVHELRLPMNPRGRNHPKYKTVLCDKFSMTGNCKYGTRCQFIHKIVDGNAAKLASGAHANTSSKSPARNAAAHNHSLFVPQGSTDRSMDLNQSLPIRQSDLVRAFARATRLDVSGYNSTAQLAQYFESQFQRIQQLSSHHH

Bcl-2-like protein 10 = Bcl-2-like protein 10 (Homo sapiens, UniProt Q9HD36); experiment: displacers of TR3 peptide from Bcl-B, primary screen, selectivity assay for Bfl-1 inhibitor project, biochemical, fluorescence polarization, FITC-TR3 peptide (AID 748);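 further: fluorescence polarization from a fluorescein-labelled TR3 peptide binding purified Bcl-B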
Bcl-2-like protein 10, sequence (Q9HD36 whole entry): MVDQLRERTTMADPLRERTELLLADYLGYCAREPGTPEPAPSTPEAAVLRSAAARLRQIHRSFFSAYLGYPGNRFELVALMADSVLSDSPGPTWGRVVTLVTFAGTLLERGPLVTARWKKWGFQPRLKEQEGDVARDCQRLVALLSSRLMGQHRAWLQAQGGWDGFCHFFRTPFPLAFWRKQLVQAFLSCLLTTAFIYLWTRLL

[3] = target: T1, Heat shock 70 kDa protein 1A; experiment: Hsp70 inhibitors, probe displacement, primary screen, biochemical, fluorescence polarization (AID 583)
[4] = target: T3, Zinc finger protein mex-5 (Caenorhabditis elegans, UniProt Q9XUB2); experiment: MEX-5/TCR-2 RNA interaction inhibitors, dose response, biochemical, C. elegans, fluorescence polarization (AID 1960)
T3 sequence (Q9XUB2 whole entry): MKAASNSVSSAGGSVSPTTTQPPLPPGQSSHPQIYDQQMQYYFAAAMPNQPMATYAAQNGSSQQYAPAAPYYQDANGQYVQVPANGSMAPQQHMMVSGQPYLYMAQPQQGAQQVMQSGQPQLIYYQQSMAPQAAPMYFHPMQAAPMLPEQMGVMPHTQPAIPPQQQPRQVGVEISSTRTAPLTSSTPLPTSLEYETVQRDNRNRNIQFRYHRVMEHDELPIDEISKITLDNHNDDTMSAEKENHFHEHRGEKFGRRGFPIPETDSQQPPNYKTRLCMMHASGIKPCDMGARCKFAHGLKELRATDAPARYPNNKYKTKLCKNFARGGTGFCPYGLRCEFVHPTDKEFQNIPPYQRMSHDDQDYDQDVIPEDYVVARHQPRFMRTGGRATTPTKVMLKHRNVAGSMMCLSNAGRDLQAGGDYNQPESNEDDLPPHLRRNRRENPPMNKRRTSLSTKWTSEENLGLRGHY

[5] = target: Mothers against decapentaplegic homolog 3 (Homo sapiens, UniProt P84022); experiment: SMAD3 transcription factor inhibitors, dose response (AID 715); format: functional
Estrogen receptor beta [6] = target: T4, Estrogen receptor beta (Homo sapiens, UniProt Q92731);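 further: recombinant ER-beta bound to coactivator SRC1 peptide in presence of estradiol agonist; inhibitors block coactivator peptide binding and lower the FRET signal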
T4 sequence (Q92731 whole entry): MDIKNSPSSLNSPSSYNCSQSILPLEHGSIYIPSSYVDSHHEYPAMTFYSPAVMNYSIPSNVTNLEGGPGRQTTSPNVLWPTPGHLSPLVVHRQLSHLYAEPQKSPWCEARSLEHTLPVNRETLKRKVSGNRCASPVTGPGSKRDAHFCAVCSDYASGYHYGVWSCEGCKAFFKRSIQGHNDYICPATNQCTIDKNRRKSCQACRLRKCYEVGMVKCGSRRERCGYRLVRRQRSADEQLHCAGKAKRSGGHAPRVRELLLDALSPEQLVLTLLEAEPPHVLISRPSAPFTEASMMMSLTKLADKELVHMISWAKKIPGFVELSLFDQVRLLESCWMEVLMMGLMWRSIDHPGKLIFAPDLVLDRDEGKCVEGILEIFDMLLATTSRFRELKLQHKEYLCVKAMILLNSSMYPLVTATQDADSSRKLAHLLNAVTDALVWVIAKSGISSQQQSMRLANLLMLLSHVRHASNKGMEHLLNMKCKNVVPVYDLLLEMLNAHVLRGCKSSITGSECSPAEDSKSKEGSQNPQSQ

Estrogen receptor beta [7] = target: T4, Estrogen receptor beta; experiment: ERβ–SRC-3 coactivator interaction inhibitors, confirmation, orthogonal assay, biochemical, ELISA, streptavidin-HRP readout (AID 1060)
[8] = target: Protein-tyrosine kinase 2-beta (Homo sapiens, UniProt Q14289);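 further: potency of inhibitors of PYK2 kinase phosphorylation of poly-GT substrate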
[9] = target: Bifunctional protein GlmU (Mycobacterium tuberculosis, UniProt P9WMN3); experiment: Inhibitors of Mycobacterial Glucosamine-1-phosphate acetyl transferase (GlmU). Secondary screen.; parameters: species or system Mycobacterium tuberculosis H37Rv
Ephrin type-A receptor 4 = Ephrin type-A receptor 4 (Mus musculus, UniProt Q03137); experiment: inhibitors of EphA4 binding to KYL peptide, primary screen, biochemical, colorimetric, mouse EphA4 (AID 689); format: functional
[10] = target: T5, Dual specificity protein phosphatase 6 (Rattus norvegicus, UniProt Q64346); experiment: MKP-3 phosphatase inhibitors, primary screen, biochemical, rat enzyme, in vitro (AID 425)
T5 sequence (Q64346 whole entry): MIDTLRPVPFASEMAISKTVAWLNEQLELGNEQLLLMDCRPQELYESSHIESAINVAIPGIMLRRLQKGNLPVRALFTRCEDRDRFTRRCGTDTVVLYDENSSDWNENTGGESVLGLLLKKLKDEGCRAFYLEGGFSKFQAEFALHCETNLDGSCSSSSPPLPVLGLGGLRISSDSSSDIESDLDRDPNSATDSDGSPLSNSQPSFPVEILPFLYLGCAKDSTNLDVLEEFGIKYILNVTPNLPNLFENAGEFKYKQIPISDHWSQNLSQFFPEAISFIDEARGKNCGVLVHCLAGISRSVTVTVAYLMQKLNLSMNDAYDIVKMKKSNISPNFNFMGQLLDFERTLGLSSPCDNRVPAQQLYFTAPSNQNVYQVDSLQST

HeLa = experiment: HeLa cell cytotoxicity, dose response, cytotoxicity control, 24 h, cherry-picked samples (AID 504726); format: functional, cell-based; conditions: Homo sapiens;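 further: potency for cytotoxicity as loss of luminescence signal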
ORF 73 = ORF 73 (Human herpesvirus 8, UniProt O40947); experiment: inhibitors of C-LANA binding to LBS DNA, dose response, biochemical, fluorescence polarization, cherry-picked samples (AID 504725); parameters: species or system Human gammaherpesvirus 8;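 further: fluorescence polarization of a labeled DNA duplex reporting LANA DNA binding; potency is for inhibitors that block LANA binding to the DNA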
[11] = target: DNA (cytosine-5)-methyltransferase 1 (Homo sapiens, UniProt P26358); experiment: DNMT1 methyltransferase inhibitors, confirmation, biochemical, fluorescent molecular beacon (AID 602386); format: functional
cells [12] = format: functional, cell-based
[13] = target: T6, Trace amine-associated receptor 1 (Homo sapiens, UniProt Q96RJ0); experiment: Fluorescence-based cell-based high throughput dose response assay to identify agonists of the human trace amine associated receptor 1 (TAAR1).; format: functional
T6 sequence (Q96RJ0 whole entry): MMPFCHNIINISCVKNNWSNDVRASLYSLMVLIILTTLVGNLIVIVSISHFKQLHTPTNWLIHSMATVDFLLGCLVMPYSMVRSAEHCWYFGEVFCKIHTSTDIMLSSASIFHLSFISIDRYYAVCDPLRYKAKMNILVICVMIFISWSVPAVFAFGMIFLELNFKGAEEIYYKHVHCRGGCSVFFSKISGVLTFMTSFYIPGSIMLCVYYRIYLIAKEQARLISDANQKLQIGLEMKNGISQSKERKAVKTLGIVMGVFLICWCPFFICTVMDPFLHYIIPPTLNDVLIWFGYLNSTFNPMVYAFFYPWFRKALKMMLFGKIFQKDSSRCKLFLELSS

[14] = target: T6, Trace amine-associated receptor 1; experiment: Counterscreen for agonists of the human trace amine associated receptor 1 (hTAAR1): Fluorescence-based cell-based high throughput dose response assay to identify hTAAR1 agonist that also desensitize TAAR1 receptor response.; format: functional
cells [15] = format: functional, cell-based; remark: listed apart in the source
Cytochrome P450 2C9 = Cytochrome P450 2C9 (Homo sapiens, UniProt P11712)
Cytochrome P450 2C9, sequence (P11712 whole entry): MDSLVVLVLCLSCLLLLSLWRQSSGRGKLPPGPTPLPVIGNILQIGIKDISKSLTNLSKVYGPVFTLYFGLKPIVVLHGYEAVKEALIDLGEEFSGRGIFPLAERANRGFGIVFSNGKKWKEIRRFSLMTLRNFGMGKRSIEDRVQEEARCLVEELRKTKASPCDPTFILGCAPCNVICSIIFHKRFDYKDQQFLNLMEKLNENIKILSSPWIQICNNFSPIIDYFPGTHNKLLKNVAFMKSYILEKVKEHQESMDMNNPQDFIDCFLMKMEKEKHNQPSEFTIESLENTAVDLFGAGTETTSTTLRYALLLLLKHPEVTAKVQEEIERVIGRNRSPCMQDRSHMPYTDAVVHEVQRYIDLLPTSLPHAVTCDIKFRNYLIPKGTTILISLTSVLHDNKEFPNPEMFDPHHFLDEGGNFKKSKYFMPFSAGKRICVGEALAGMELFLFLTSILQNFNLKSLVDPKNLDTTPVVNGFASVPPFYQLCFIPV

[16] = target: T7, Voltage-gated N-type calcium channel alpha-1B subunit/Amyloid beta A4 precursor protein-binding family A member 1 (Homo sapiens, UniProt Q00975+Q02410); experiment: disruptors of Mint-PDZ/N-type channel peptide interaction – biochemical, HTRF, set 2, SAR follow-up (AID 434980); format: functional
T7 sequence (Q00975 whole entry): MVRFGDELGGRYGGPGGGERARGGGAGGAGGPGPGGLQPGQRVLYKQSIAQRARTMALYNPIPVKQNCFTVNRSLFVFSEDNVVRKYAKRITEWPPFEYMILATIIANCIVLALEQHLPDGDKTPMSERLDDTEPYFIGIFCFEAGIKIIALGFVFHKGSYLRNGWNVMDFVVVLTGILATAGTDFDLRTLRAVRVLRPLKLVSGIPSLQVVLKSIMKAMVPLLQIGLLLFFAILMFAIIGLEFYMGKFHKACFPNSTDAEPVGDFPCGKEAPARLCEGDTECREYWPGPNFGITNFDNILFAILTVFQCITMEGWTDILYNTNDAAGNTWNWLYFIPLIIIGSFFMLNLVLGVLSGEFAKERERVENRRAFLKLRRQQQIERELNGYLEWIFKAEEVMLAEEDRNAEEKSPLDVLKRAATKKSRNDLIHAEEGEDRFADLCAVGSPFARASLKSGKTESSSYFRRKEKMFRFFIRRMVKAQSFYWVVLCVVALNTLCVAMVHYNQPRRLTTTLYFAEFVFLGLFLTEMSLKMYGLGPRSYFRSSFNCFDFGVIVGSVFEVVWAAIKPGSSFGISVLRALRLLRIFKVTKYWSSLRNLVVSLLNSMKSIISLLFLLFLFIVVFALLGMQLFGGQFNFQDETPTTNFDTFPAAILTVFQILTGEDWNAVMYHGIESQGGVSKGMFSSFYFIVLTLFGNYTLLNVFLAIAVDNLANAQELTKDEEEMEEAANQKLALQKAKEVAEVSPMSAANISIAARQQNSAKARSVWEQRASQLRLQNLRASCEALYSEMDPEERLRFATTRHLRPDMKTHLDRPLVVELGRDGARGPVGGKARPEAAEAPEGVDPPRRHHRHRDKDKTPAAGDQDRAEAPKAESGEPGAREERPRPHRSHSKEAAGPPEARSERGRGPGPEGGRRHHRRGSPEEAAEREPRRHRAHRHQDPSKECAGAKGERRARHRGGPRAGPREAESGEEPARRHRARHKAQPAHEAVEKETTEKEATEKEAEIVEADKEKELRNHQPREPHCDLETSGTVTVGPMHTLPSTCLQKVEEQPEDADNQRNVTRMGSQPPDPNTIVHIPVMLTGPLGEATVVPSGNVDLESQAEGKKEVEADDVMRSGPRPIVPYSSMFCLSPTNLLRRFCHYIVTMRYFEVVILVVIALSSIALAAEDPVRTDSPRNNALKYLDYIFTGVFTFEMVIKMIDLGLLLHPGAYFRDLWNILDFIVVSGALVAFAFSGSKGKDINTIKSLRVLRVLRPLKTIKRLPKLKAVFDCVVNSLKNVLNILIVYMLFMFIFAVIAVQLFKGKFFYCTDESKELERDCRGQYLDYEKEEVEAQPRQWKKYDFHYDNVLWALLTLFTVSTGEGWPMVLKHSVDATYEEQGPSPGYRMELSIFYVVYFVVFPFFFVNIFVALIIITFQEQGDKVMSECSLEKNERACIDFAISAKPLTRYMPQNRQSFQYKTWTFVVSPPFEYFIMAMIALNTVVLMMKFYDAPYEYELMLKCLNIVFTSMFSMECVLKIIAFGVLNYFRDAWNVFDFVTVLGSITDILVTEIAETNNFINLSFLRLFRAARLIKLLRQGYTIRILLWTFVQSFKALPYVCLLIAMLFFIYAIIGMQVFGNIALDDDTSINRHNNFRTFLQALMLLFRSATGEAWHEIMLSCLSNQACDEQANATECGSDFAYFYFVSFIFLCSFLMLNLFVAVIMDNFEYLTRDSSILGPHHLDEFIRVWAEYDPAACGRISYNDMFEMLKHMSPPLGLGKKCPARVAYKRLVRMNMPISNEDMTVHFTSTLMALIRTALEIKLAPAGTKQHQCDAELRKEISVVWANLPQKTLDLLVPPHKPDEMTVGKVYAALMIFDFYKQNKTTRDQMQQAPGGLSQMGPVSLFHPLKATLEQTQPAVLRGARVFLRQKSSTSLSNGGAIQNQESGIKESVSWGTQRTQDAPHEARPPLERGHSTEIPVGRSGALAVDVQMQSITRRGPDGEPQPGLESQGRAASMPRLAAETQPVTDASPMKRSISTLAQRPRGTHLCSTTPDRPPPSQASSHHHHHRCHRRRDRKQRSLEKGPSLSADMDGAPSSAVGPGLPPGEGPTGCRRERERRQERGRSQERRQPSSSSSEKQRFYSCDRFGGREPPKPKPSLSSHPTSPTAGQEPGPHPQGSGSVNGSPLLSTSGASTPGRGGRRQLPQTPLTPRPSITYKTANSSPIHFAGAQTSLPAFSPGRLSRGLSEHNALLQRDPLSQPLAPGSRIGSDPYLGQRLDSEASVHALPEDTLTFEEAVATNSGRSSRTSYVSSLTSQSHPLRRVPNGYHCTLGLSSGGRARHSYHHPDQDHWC
T7 sequence (Q02410 whole entry): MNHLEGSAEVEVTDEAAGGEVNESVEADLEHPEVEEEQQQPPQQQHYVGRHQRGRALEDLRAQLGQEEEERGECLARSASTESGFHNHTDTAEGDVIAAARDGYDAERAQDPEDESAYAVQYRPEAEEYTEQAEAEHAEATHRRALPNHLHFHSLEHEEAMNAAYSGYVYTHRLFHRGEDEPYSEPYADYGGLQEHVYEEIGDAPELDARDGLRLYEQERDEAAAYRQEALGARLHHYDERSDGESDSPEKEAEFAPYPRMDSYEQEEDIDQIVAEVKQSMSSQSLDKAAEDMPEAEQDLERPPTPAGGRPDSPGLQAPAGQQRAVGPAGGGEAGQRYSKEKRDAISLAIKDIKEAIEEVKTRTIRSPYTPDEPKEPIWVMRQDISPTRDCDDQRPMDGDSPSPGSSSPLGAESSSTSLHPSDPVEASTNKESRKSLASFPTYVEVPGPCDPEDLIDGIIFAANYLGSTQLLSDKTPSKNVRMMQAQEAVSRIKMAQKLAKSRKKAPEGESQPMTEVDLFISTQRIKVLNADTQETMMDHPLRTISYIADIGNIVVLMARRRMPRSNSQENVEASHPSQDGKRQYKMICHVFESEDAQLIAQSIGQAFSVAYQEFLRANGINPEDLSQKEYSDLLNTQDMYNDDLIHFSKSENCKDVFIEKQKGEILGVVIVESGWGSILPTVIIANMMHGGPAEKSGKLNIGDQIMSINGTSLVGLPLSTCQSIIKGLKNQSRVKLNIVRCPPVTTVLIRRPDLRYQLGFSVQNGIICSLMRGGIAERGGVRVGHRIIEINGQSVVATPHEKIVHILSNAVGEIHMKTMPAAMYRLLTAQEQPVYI

[17] = target: T7, Voltage-gated N-type calcium channel alpha-1B subunit/Amyloid beta A4 precursor protein-binding family A member 1; experiment: disruptors of Mint-PDZ/N-type channel peptide interaction – biochemical, HTRF, SAR follow-up (AID 2489); format: functional

T1 sequence (P0DMV8 whole entry, the tested form may be a part): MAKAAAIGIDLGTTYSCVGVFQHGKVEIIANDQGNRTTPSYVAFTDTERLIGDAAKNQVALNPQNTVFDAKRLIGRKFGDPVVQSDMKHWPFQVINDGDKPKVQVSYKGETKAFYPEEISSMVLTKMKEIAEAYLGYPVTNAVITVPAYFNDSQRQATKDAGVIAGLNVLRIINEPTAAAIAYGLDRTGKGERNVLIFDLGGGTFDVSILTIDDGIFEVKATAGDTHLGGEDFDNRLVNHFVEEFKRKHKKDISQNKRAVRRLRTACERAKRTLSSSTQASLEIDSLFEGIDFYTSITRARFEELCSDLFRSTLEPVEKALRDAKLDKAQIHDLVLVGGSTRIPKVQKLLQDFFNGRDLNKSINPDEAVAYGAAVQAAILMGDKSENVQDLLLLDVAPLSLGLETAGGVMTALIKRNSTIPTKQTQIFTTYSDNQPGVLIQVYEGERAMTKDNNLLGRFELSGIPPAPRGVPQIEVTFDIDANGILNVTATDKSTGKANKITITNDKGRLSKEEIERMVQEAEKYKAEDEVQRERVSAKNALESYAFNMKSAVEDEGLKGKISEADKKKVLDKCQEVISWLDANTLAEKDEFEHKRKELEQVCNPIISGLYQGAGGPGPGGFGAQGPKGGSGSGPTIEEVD

CC1(C)CCCN(C(=O)c2coc(=O)c(Br)c2)C1
IC50 [1]: 8.32 µM (active)
EC50 [2]: > 300 µM (not active)
IC50 (Bcl-2-like protein 10): 6.54 µM (active)
IC50 [3]: 13.1 µM (active)
EC50 [4]: 68.3 µM (active)
IC50 [5]: 14 µM (active)
IC50 (Estrogen receptor beta [6]): < 1.56 µM (active)
IC50 (Estrogen receptor beta [7]): 93.2 µM (not active)
IC50 [8]: 5.23 µM (active)
IC50 [9]: 21.2 µM (active)
IC50 (Ephrin type-A receptor 4): 8.98 µM (active)
IC50 [10]: > 10 µM (not active)
AC50 (HeLa): 96.3 µM (active)
AC50 (ORF 73): 71.2 µM (active)
IC50 [11]: 2.92 µM (active)
IC50 (cells [12]): > 29.9 µM (inactive)
EC50 [13]: 0.827 µM (active)
IC50 [14]: 2.41 µM (active)
EC50 (cells [15]): > 29.9 µM (inactive)
AC50 (Cytochrome P450 2C9): 28.2 µM (inconclusive)

O=C(NCCc1ccncc1)c1cc(-c2ccco2)nc2ccccc12
IC50 [16]: > 56.8 µM (inactive)
IC50 [17]: > 56.8 µM (inactive)
